Tested on: 991263-137-R1-J2-PDC complex spheroid viability
Assay: Anticancer human tumor 991263-137-R1-J2-PDC patient-derived colon adenocarcinoma cell line growth inhibition [POLQ]
Conditions: for IC50: curve of first compound; for viability, T/C: stronger effect = lower value
In short: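 Three-cell-type spheroids modelling solid tumor plus stroma served as the readout system; POL inhibitors were tested individually and in combination, concentration ranges set by clinical Cmax where known.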

[1] = second compound 0.0316 µM, first compound 0.0316 µM
[2] = second compound 0.0316 µM, first compound 0.1 µM
[3] = second compound 0.0316 µM, first compound 0.316 µM
[4] = second compound 0.0316 µM, first compound 1 µM
[5] = second compound 0.0316 µM, first compound 3.16 µM
[6] = second compound 0.0316 µM, first compound 10 µM
[7] = second compound 0.1 µM, first compound 0.0316 µM
[8] = second compound 0.1 µM, first compound 0.1 µM
[9] = second compound 0.1 µM, first compound 0.316 µM
[10] = second compound 0.1 µM, first compound 1 µM
[11] = second compound 0.1 µM, first compound 3.16 µM
[12] = second compound 0.1 µM, first compound 10 µM
[13] = second compound 0.316 µM, first compound 0.0316 µM
[14] = second compound 0.316 µM, first compound 0.1 µM
[15] = second compound 0.316 µM, first compound 0.316 µM
[16] = second compound 0.316 µM, first compound 1 µM
[17] = second compound 0.316 µM, first compound 3.16 µM
[18] = second compound 0.316 µM, first compound 10 µM
[19] = second compound 1 µM, first compound 0.0316 µM
[20] = second compound 1 µM, first compound 0.1 µM
[21] = second compound 1 µM, first compound 0.316 µM
[22] = second compound 1 µM, first compound 1 µM
[23] = second compound 1 µM, first compound 3.16 µM
[24] = second compound 1 µM, first compound 10 µM
[25] = second compound 3.16 µM, first compound 0.0316 µM
[26] = second compound 3.16 µM, first compound 0.1 µM
[27] = second compound 3.16 µM, first compound 0.316 µM
[28] = second compound 3.16 µM, first compound 1 µM
[29] = second compound 3.16 µM, first compound 3.16 µM
[30] = second compound 3.16 µM, first compound 10 µM
[31] = second compound 10 µM, first compound 0.0316 µM
[32] = second compound 10 µM, first compound 0.1 µM
[33] = second compound 10 µM, first compound 0.316 µM
[34] = second compound 10 µM, first compound 1 µM
[35] = second compound 10 µM, first compound 3.16 µM
[36] = second compound 10 µM, first compound 10 µM
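Further: spheroids exposed to compounds for 7 days before readout.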
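Wherever viability, T/C is given: 100% = DMSO vehicle control viability.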

## CCc1cc2c(N3CCc4c(cc(Cn5ccnc5)cc4-c4cn(C)nc4C(F)(F)F)C3=O)ccnc2c(OC)n1 + Nc1ccc(C#CCN(C(=O)Cc2ncc(C(F)(F)F)cc2C(F)(F)F)c2ccc(F)cc2)nn1
Second compound 0.0316 µM
  IC50: > 10 µM
Second compound 0.1 µM
  IC50: > 10 µM
Second compound 0.316 µM
  IC50: > 10 µM
Second compound 1 µM
  IC50: > 10 µM
Second compound 3.16 µM
  IC50: > 10 µM
Second compound 10 µM
  IC50: > 10 µM
[1]
  viability, T/C: 118%
[2]
  viability, T/C: 109%
[3]
  viability, T/C: 101%
[4]
  viability, T/C: 92.2%
[5]
  viability, T/C: 91.5%
[6]
  viability, T/C: 88.7%
[7]
  viability, T/C: 97.1%
[8]
  viability, T/C: 103%
[9]
  viability, T/C: 108%
[10]
  viability, T/C: 101%
[11]
  viability, T/C: 96%
[12]
  viability, T/C: 90.2%
[13]
  viability, T/C: 107%
[14]
  viability, T/C: 99.8%
[15]
  viability, T/C: 106%
[16]
  viability, T/C: 111%
[17]
  viability, T/C: 103%
[18]
  viability, T/C: 79.3%
[19]
  viability, T/C: 95.1%
[20]
  viability, T/C: 107%
[21]
  viability, T/C: 108%
[22]
  viability, T/C: 91.9%
[23]
  viability, T/C: 97.4%
[24]
  viability, T/C: 95.7%
[25]
  viability, T/C: 116%
[26]
  viability, T/C: 112%
[27]
  viability, T/C: 87%
[28]
  viability, T/C: 101%
[29]
  viability, T/C: 95.3%
[30]
  viability, T/C: 89.6%
[31]
  viability, T/C: 95.1%
[32]
  viability, T/C: 102%
[33]
  viability, T/C: 107%
[34]
  viability, T/C: 89.8%
[35]
  viability, T/C: 86.4%
[36]
  viability, T/C: 82.9%

## C=CC(=O)N1CCN(c2nc(=O)n(-c3c(C)ccnc3C(C)C)c3nc(-c4c(O)cccc4F)c(F)cc23)C(C)C1 (centres undefined) + COC1C(OC(N)=O)C(O)C(Oc2ccc3c(O)c(NC(=O)c4ccc(O)c(CC=C(C)C)c4)c(=O)oc3c2C)OC1(C)C
Second compound 0.0316 µM
  IC50: > 10 µM
Second compound 0.1 µM
  IC50: > 10 µM
Second compound 0.316 µM
  IC50: > 10 µM
Second compound 1 µM
  IC50: > 10 µM
Second compound 3.16 µM
  IC50: > 10 µM
Second compound 10 µM
  IC50: > 10 µM
[1]
  viability, T/C: 114%
[2]
  viability, T/C: 123%
[3]
  viability, T/C: 115%
[4]
  viability, T/C: 103%
[5]
  viability, T/C: 104%
[6]
  viability, T/C: 93.3%
[7]
  viability, T/C: 108%
[8]
  viability, T/C: 129%
[9]
  viability, T/C: 115%
[10]
  viability, T/C: 115%
[11]
  viability, T/C: 114%
[12]
  viability, T/C: 95.5%
[13]
  viability, T/C: 115%
[14]
  viability, T/C: 124%
[15]
  viability, T/C: 109%
[16]
  viability, T/C: 98.8%
[17]
  viability, T/C: 133%
[18]
  viability, T/C: 99.9%
[19]
  viability, T/C: 107%
[20]
  viability, T/C: 106%
[21]
  viability, T/C: 110%
[22]
  viability, T/C: 120%
[23]
  viability, T/C: 115%
[24]
  viability, T/C: 119%
[25]
  viability, T/C: 98.8%
[26]
  viability, T/C: 110%
[27]
  viability, T/C: 109%
[28]
  viability, T/C: 114%
[29]
  viability, T/C: 104%
[30]
  viability, T/C: 122%
[31]
  viability, T/C: 88.3%
[32]
  viability, T/C: 124%
[33]
  viability, T/C: 123%
[34]
  viability, T/C: 109%
[35]
  viability, T/C: 117%
[36]
  viability, T/C: 104%

Reference: PubChem BioAssay AID1963828 (Molecular Pharmacology Branch, DTP, NCI, 2024)
